# Experimental data as given in patent US4535090A, “3,5-Diphenyl-1H-1,2,4-triazoles pharmaceutical compositions and uses” (Gruppo Lepetit S.p.A., priority 1981, dated 1985).
# Tested on: pregnancy in female Sprague Dawley rats
# Assay: Pregnancy termination activity in rats after a single subcutaneous injection at day 7 of gestation
# Assay type: in vivo, rat (Sprague Dawley)
# Settings: rat, single s.c. injection, dissolved in sesame oil containing 20% benzyl benzoate (or suspended if insoluble), autopsy day 16
# Method: In particular, female Sprague Dawley rats weighing 200-230 g were mated and the presence of sperm in the vagina was taken as evidence of mating. The day the sperm was detected, was considered day one of pregnancy. Pregnancy was later confirmed at the time of autopsy by the presence of implantation sites in the uterus.
# Test compounds dissolved in sesame oil containing 20% benzyl benzoate (or suspended if insoluble), were administered subcutaneously, in a single injection, on day 7 of gestation. The animals were then autopsied on day 16 of pregnancy and the uteri were examined for evidence of pregnancy (implantation sites, fetal resorption or live fetuses), hemorrage, and evidence of abnormalities of the uterus, placenta or fetuses.
row,Compound,"ED50 (dose terminating pregnancy, absence of live fetuses, in 50% of the treated animals) [mg/kg]"
1,"1-acetyl-3(5)-(2-decanoyloxymethylphenyl)-5(3)-(3,4-dimethoxyphenyl)-1H-1,2,4-triazole [Example 10]",4
2,"1-hexanoyl-3(5)-(2-hexanoyloxymethylphenyl)-5(3)-(3-methoxyphenyl)-1H-1,2,4-triazole [Example 11]",8

# Same assay, conditions: sc, rat, single s.c. injection, dissolved in sesame oil containing 20% benzyl benzoate (or suspended if insoluble), autopsy day 16, read-out: ED50 (dose terminating pregnancy, absence of live fetuses, in 50% of the treated animals)
row,Compound,ED50 [mg/kg]
1,"COc1cccc(-c2n[nH]c(-c3ccccc3COC(C)=O)n2)c1 [5-(2-Acetyloxymethylphenyl)-3-(3-methoxyphenyl)-1H--1,2,4-triazole, reference compound]",50
2,"CCCCCCCC(=O)OCc1ccccc1-c1nc(-c2cccc(OC)c2)n[nH]1 [Example 1, 3-(3-methoxyphenyl)-5-(2-octanoyloxymethylphenyl)-1H-1,2,4-triazole]",13
3,"CCCCCCCCCCCC(=O)OCc1ccccc1-c1nc(-c2cccc(OC)c2)n[nH]1 [Example 2, 5-(2-dodecanoyloxymethylphenyl)-3-(3-methoxyphenyl)-1H-1,2,4-triazole]",2
4,"CCCCCCCC(=O)OCc1ccccc1-c1nc(-c2cccc(OCC)c2)n[nH]1 [Example 3, 3-(3-ethoxyphenyl)-5-(2-octanoyloxymethylphenyl)-1H-1,2,4-triazole]",4
5,"CCCCCCCCCC(=O)OCc1ccccc1-c1nc(-c2cccc(OC)c2)n[nH]1 [Example 4, 5-(2-decanoyloxymethylphenyl)-3-(3-methoxyphenyl)-1H-1,2,4-triazole]",2
6,"CCCCCCCCCCCC(=O)OCc1ccccc1-c1nc(-c2ccc(OC)c(OC)c2)n[nH]1 [Example 6, 5-(2-dodecanoyloxymethylphenyl)-3-(3,4-dimethoxyphenyl)-1H-1,2,4-triazole]",2
7,CCCCCCCCCC(=O)OCc1ccccc1-c1nc(-c2cccc(OCC)c2)n[nH]1 [Example 7],2
8,"CCCCCCCCCC(=O)OCc1ccccc1-c1nc(-c2ccc(OC)c(OC)c2)n[nH]1 [Example 8, 5-(2-decanoyloxymethylphenyl)-3-(3,4-dimethoxyphenyl)-1H-1,2,4-triazole]",10
9,"CCCCCC(=O)OCc1ccccc1-c1nc(-c2cccc(OCC)c2)n[nH]1 [Example 9, 3-(3-ethoxyphenyl)-5-(2-hexanoyloxymethylphenyl)-1H-1,2,4-triazole]",7

# Same assay, conditions: sc, rat, single s.c. injection, given suspended instead of dissolved, autopsy day 16, read-out: ED50 (dose terminating pregnancy, absence of live fetuses, in 50% of the treated animals)
row,Compound,ED50 [mg/kg]
1,"COc1cccc(-c2n[nH]c(-c3ccccc3CO)n2)c1 [5-(2-Hydroxymethylphenyl)-3-(3-methoxyphenyl)-1H--1,2,4-triazole, reference compound]",40
